The target in test [1] is T1, Cannabinoid receptor 2 (Homo sapiens, UniProt P34972). Briefly: Antagonist activity at human CB2 receptor expressed in CHO cells co-transfected with human Galpha16 assessed as increase in intracellular calcium mobilization at 10 uM preincubated with compound for 10 mins followed by HBSS buffer wash and re-treated with compound at same concentration. Particulars: filed as antagonist. It is filed as functional, cell-based. In general terms: A change in cytosolic calcium serves as a functional read-out for many receptors and channels.

The target in test [2] is T1, Cannabinoid receptor 2. The test can be described thus: Agonist activity at human CB2 receptor expressed in CHO cells assessed as reduction in ERK1/2 phosphorylation at 10 uM by Western blot analysis. The test is classed as functional, cell-based. (Immunoblotting shows a protein as a band on a membrane.)
In test [3] the target is T2, Cannabinoid receptor 1 (Homo sapiens, UniProt P21554). Briefly: Agonist activity at human CB1 receptor expressed in CHO-K1 cells co-transfected with human Galpha16 assessed as intracellular calcium flux at 10 uM relative to control. The test is classed as functional, cell-based. Particulars: filed as agonist.
Test [4] deals with T1, Cannabinoid receptor 2. Briefly: Agonist activity at human CB2 receptor expressed in CHO-K1 cells co-transfected with human Galpha16 assessed as intracellular calcium flux. The test is classed as functional, cell-based.
Test [5] concerns the target T1, Cannabinoid receptor 2. The test can be described thus: Antagonist activity at human CB2 receptor expressed in CHO cells co-transfected with human Galpha16 assessed as increase in intracellular calcium mobilization at 10 uM. The test is classed as functional, cell-based. Conditions: filed as antagonist.
Test [6] addresses T1, Cannabinoid receptor 2. The test can be described thus: Antagonist activity at human CB2 receptor expressed in CHO-K1 cells co-transfected with human Galpha16 assessed as intracellular calcium flux. The test is classed as functional, cell-based.
The target in test [7] is T1, Cannabinoid receptor 2. The test can be described thus: Agonist activity at human CB2 receptor expressed in HEK293 cells assessed as forskolin-stimulated cAMP accumulation preincubated with compound for 10 mins followed by forskolin induction and measured after 2 hrs by HTRF analysis. The test is classed as functional, cell-based.
In test [8] the target is T1, Cannabinoid receptor 2. The test can be described thus: Antagonist activity at human CB2 receptor expressed in CHO cells co-transfected with human Galpha16 assessed as receptor desensitization by measuring reduction in calcium response at 10 uM. It is filed as functional, cell-based. Conditions: filed as antagonist.
The target in test [9] is T1, Cannabinoid receptor 2. The test can be described thus: Agonist activity at human CB2 receptor expressed in CHO-K1 cells co-transfected with human Galpha16 assessed as intracellular calcium flux at 10 uM relative to control. It is filed as functional, cell-based. Particulars: filed as agonist.
The target of test [10] is T2, Cannabinoid receptor 1. The test can be described thus: Antagonist activity at human CB1 receptor expressed in CHO-K1 cells co-transfected with human Galpha16 assessed as intracellular calcium flux. The test is classed as functional, cell-based.
In test [11] the target is T1, Cannabinoid receptor 2. The test can be described thus: Partial agonist activity at human CB2 receptor expressed in CHO-K1 cells co-transfected with human Galpha16 assessed as intracellular calcium flux. The test is classed as functional, cell-based.
Test [12] deals with T1, Cannabinoid receptor 2. Briefly: Partial agonist activity at human CB2 receptor expressed in CHO-K1 cells co-transfected with human Galpha16 assessed as intracellular calcium flux at 10 uM relative to control. The test is classed as functional, cell-based. Conditions: filed as partial agonist.
The target in test [13] is T2, Cannabinoid receptor 1. Briefly: Partial agonist activity at human CB1 receptor expressed in CHO-K1 cells co-transfected with human Galpha16 assessed as intracellular calcium flux at 10 uM relative to control. The test is classed as functional, cell-based. Particulars: filed as partial agonist.
Test [14] addresses T2, Cannabinoid receptor 1. The test can be described thus: Partial agonist activity at human CB1 receptor expressed in CHO-K1 cells co-transfected with human Galpha16 assessed as intracellular calcium flux. The test is classed as functional, cell-based.
Test [15] relates to Mus musculus. Briefly: Antiinflammatory activity against DSS-induced colitis C57/BL6 mouse model assessed as disruption of epithelial layer in colon at 10 to 30 mg/kg, po administered for 9 days by H and E staining based analysis. It is filed as functional, organism-based. Particulars: dose 10-30 mg/kg, time 9.0 day.
The test system of test [16] is Mus musculus. The test can be described thus: Antiinflammatory activity against DSS-induced colitis in po dosed C57/BL6 mouse model assessed as suppression of IL-1beta expression administered for 9 days by ELISA analysis. Particulars: dose 10-30 mg/kg, time 9.0 day. The test is classed as functional, organism-based. (In general: In an ELISA, binding on a coated surface is turned into a signal by an enzyme label.)

In test [17] the test system is Mus musculus. The test can be described thus: Antiinflammatory activity against DSS-induced colitis C57/BL6 mouse model assessed as loss of goblet cells at 10 to 30 mg/kg, po administered for 9 days by H and E staining based analysis. The test is classed as functional, organism-based. Particulars: dose 10-30 mg/kg, time 9.0 day.
The test system of test [18] is Mus musculus. The test can be described thus: Antiinflammatory activity against DSS-induced colitis in po dosed C57/BL6 mouse model assessed as suppression of TNF-alpha expression administered for 9 days by ELISA analysis. The test is classed as functional, organism-based. Conditions: dose 10-30 mg/kg, time 9.0 day.
Test [19] concerns Mus musculus. Briefly: Antiinflammatory activity against DSS-induced colitis in po dosed C57/BL6 mouse model assessed as suppression of IL-6 expression administered for 9 days by ELISA analysis. The test is classed as functional, organism-based. Conditions: dose 10-30 mg/kg, time 9.0 day.
For test [20], the system named is Mus musculus. The test can be described thus: Antiinflammatory activity against DSS-induced colitis C57/BL6 mouse model assessed as delay in hematochezia development at 10 to 30 mg/kg, po administered for 9 days. The test is classed as functional, organism-based. Conditions: dose 10-30 mg/kg, time 9.0 day.
Test [21] deals with T2, Cannabinoid receptor 1. Briefly: Agonist activity at human CB1 receptor expressed in CHO-K1 cells co-transfected with human Galpha16 assessed as intracellular calcium flux. It is filed as functional, cell-based.
The target of test [22] is T1, Cannabinoid receptor 2. The test can be described thus: Antagonist activity at human CB2 receptor expressed in CHO cells co-transfected with human Galpha16 assessed as increase in intracellular calcium mobilization. It is filed as functional, cell-based. Conditions: filed as antagonist.
The test system of test [23] is Mus musculus. The test can be described thus: Antiinflammatory activity against DSS-induced colitis C57/BL6 mouse model assessed as reduction in inflammatory infiltration at 10 to 30 mg/kg, po administered for 9 days by H and E staining based analysis. The test is classed as functional, organism-based. Conditions: dose 10-30 mg/kg, time 9.0 day.
Test [24] has as its system Mus musculus. Briefly: Antiinflammatory activity against DSS-induced colitis C57/BL6 mouse model assessed as reduction in disease activity index (DAI) score at 10 to 30 mg/kg, po administered for 9 days. The test is classed as functional, organism-based. Conditions: dose 10-30 mg/kg, time 9.0 day.
For test [25], the target named is T1, Cannabinoid receptor 2. The test can be described thus: Antagonist activity at human CB2 receptor expressed in CHO cells co-transfected with human Galpha16 assessed as receptor desensitization by measuring reduction in calcium response. The test is classed as functional, cell-based. Conditions: filed as antagonist.
Test [26] concerns Mus musculus. Briefly: Antiinflammatory activity against DSS-induced colitis C57/BL6 mouse model assessed as reduction in body weight loss at 10 to 30 mg/kg, po administered for 9 days. It is filed as functional, organism-based. Particulars: dose 10-30 mg/kg, time 9.0 day.
The test system of test [27] is Mus musculus. Briefly: Antiinflammatory activity against DSS-induced colitis C57/BL6 mouse model assessed as delay in diarrhoea development at 10 to 30 mg/kg, po administered for 9 days. It is filed as functional, organism-based. Particulars: dose 10-30 mg/kg, time 9.0 day.

SMILES strings stand for the structures. pEC50, pIC50: −log10 of the molar value. Active and inactive are the calls of the source. No cut-off for these calls is given here. Bounds are passed on as bounds.

T1 sequence (P34972 whole entry): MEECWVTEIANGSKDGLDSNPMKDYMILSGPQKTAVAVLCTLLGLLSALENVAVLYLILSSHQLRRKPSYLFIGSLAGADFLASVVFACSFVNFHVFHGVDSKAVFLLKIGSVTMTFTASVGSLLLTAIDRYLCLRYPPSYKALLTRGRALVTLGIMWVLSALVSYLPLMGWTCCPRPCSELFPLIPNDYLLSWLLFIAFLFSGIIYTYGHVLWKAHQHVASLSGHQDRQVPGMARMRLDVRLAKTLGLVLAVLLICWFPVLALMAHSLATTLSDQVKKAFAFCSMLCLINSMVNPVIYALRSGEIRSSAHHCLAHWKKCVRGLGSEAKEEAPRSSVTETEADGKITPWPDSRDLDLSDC
T2 sequence (P21554 whole entry): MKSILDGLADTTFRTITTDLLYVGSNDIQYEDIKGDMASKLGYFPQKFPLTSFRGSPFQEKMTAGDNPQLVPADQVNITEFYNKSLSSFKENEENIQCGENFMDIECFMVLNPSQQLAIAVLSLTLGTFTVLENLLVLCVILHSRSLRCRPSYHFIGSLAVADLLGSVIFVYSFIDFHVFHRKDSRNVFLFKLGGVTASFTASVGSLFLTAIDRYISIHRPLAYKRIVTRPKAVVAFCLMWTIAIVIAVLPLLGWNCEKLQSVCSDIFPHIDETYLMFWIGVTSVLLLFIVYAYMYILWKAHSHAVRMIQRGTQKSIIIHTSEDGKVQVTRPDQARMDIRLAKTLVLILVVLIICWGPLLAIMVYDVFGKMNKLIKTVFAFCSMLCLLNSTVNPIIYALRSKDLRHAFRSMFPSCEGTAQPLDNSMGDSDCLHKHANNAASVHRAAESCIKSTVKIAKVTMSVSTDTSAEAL

Consider `CCCCCCC(C)(C)c1ccc([C@@H]2C[C@H](C)CC[C@H]2CCCO)c(O)c1`, for which the outcome on Cannabinoid receptor 2 [1], on Cannabinoid receptor 2 [5] and at Cannabinoid receptor 2 [8] was Active. Besides, on Cannabinoid receptor 2 [2], the outcome was inactive. Also, the Emax on Cannabinoid receptor 1 [3] and on Cannabinoid receptor 2 [9] was 100% in each case. Moreover, the values for the negative logarithm of the EC50 (pEC50) on Cannabinoid receptor 2 [4] and at Cannabinoid receptor 2 [7] were 7.46 and 7.79, respectively. Further, the pIC50 at Cannabinoid receptor 2 [6] is less than 4.00.
As to `CCCCCn1nc(C(=O)NC(C)(C)CO)cc1-c1ccco1`, the pIC50 on Cannabinoid receptor 1 [10] was less than 4.00. In addition, the pEC50 was 7.25 at Cannabinoid receptor 2 [11] and 6.02 at Cannabinoid receptor 1 [14]. Besides, the Emax came to 50% at Cannabinoid receptor 2 [12] and 80% on Cannabinoid receptor 1 [13].
As for `CCCCn1nc(C(=O)NC(C)(C)CO)cc1-c1cccs1`, the outcome in the test on Mus musculus [15], in the test with Mus musculus [17], with Mus musculus [20], at Cannabinoid receptor 2 [22], with Mus musculus [23] and with Mus musculus [24] was Active. Also, the result on Cannabinoid receptor 2 [25], in the test on Mus musculus [26] and in the test with Mus musculus [27] was Active. The Activity entry in the test with Mus musculus [16], with Mus musculus [18] and in the test with Mus musculus [19] was “Dose-dependent-effect” throughout. The pIC50 at Cannabinoid receptor 1 [10] and on Cannabinoid receptor 2 [6] was less than 4.00 each time. Moreover, the result at Cannabinoid receptor 2 [2] was inactive. Further, the pEC50 at Cannabinoid receptor 1 [21] was less than 4.00; on Cannabinoid receptor 2 [4] it was 7.79; at Cannabinoid receptor 2 [7], 7.82. In addition, the Emax on Cannabinoid receptor 2 [9] amounted to 90%.

Usually Emax stands for the size of the effect at its maximum, as opposed to the concentration needed. The pEC50 is the negative decadic logarithm of the EC50, by convention in mol/L. By pIC50 is commonly meant the IC50 on a negative log10 scale, so that one unit is a factor of ten.

The record behind these values is ChEMBL document CHEMBL6078695, “Design, synthesis, and biological evaluations of 5-aryl-pyrazole-3-carboxamide derivatives as selective CB2 receptor agonists for the treatment of colitis” (Eur J Med Chem, 2025).
